“Also recorded” adds a separate entry of the source. Counter-ions that a name gives are not always drawn.
Key:
[1] = system: HCC1937; experiment: MTS cell number assay (CellTiter 96), TNBC cells; format: cell-based; settings: 1 mM, 72 hours, MTS method
Procedure: (§1) FIGS. 2A-2D. Metformin analogues inhibit growth/survival of triple negative breast cancer cells. MDA-MB-231 (FIG. 2A), HCC38 (FIG. 2B), HCC1937 (FIG. 2C) and HCC1806 (FIG. 2D) cells were cultured in medium containing 1% fetal bovine serum and increasing concentrations of metformin and analogues JD001-JD009 (0.1, 1 and 5 mM). After 3 days, MTS assay was performed. The percentage of surviving cells relative to controls, defined as 100% survival, was determined by the MTS assay.
(§2) Cells were incubated in the presence of vehicle, metformin or metformin analogues for 72 hours in their respective media. After treatment cell numbers were determined with the MTS method using the CellTiter 96 Aqueous Non-Radioactive Cell Proliferation Assay (Promega). Numbers express percentage of vehicle treated controls at 1 mM concentration metformin or metformin analogues (JD001-JD009). TNBC: Triple Negative Breast Cancer Cells, ER+BC: Estrogen receptor positive breast cancer.

[2] = system: MDA-MB-231; experiment: MTS cell number assay (CellTiter 96), TNBC cells; format: cell-based; settings: Homo sapiens, 1 mM, 72 hours, MTS method, read-out: Biodata TNBC MDA-MB-231, cell numbers as percentage of vehicle treated controls
Procedure: as §1, §2

[3] = system: MCF7; experiment: MTS cell number assay (CellTiter 96), ER+ breast cancer cells; format: cell-based; settings: Homo sapiens, 1 mM, 72 hours, MTS method, read-out: ER+ BC MCF7, cell numbers as percentage of vehicle treated controls
Procedure: FIG. 1. Metformin analogues inhibit growth/survival of ER+ MCF7 breast cancer cells. MCF7 cells were cultured in medium containing different concentrations of metformin and analogues (0.1, 1 and 5 mM). After 3 days, the percentage of surviving cells relative to controls, defined as 100% survival, was determined by the MTS assay. Data represents three independent experiments.
Compounds described herein (e.g. metformin derivatives and/or analogues) were tested in human MCF-7 breast cancer cells, a standard ERalpha-positive model of breast malignancy (FIG. 1), and in four different cell lines classified as TNBC, including MDA-MB-231, HCC1937, HCC38 and HCC1806 (FIGS. 2A-2D). […] Experiments were also performed in: 1) a non-small cell lung cancer cell line that is known to be resistant to standard chemotherapy (A549); and 2) a melanoma-like cell model (MDA-MB-435). To find if analogues have effects on normal cells compounds were tested in two different types of cells, human umbilical vein endothelial cells (HUVEC) and human mammary epithelial cells (HMEC). The effects of metformin (MET) were compared with compounds JD001-JD009.
as §2

[4] = system: HMEC; experiment: MTS cell number assay (CellTiter 96), normal cells; format: cell-based; settings: Homo sapiens, 1 mM, 72 hours, MTS method, read-out: Biodata Normal HMEC, cell numbers as percentage of vehicle treated controls
Procedure: (§3) FIGS. 4A-4B. Effects of metformin and metformin analogues on normal cells. HMEC (FIG. 4A) and HUVEC (FIG. 4B) cells were plated in special media. After 24 hours, cells were treated with increasing concentrations of metformin and analogues JD001-JD009 (0.1, 1 and 5 mM). After 3 days, MTS assay was performed. Survival is expressed as percentage of vehicle treated control. Data represents at least two experiments.
(§4) The effects of compounds described herein (including embodiments) (e.g. metformin analogues) were determined on two types of normal nonmalignant human cells, human umbilical vein endothelial cells (HUVEC) and human mammary epithelial cells (HMEC). There were no significant biologic effects noted on exposure to the metformin analogues.
as §2

[5] = system: HUVEC; experiment: MTS cell number assay (CellTiter 96), normal cells; format: cell-based; settings: Homo sapiens, 1 mM, 72 hours, MTS method, read-out: Biodata Normal HUVEC, cell numbers as percentage of vehicle treated controls
Procedure: as §3, §4, §2

[6] = system: A549; experiment: MTS cell number assay (CellTiter 96), NSCLC cells; format: cell-based; settings: Homo sapiens, 1 mM, 72 hours, MTS method, read-out: Biodata extra A549, cell numbers as percentage of vehicle treated controls
Procedure: (§5) FIGS. 3A-3B. Metformin analogues inhibit survival of non-small cell lung cancer (NSCLC) (FIG. 3A) and melanoma cell lines (FIG. 3B). A549 (NSCLC) and MDA-MB-435 (melanoma) cells were cultured in medium containing 1% fetal bovine serum and increasing concentrations of metformin (MET) and analogues JD001-JD007 (0.1, 1 and 5 mM). After 3 days, MTS assay was performed. Survival is expressed as percentage of control defined at 100%.
as §2

[7] = system: MDA-MB-435; experiment: MTS cell number assay (CellTiter 96), melanoma cells; format: cell-based; settings: 1 mM, 72 hours, MTS method
Procedure: as §5, §2

[8] = system: PANC-1 cells; experiment: Pancreatic cancer cell proliferation in vitro (cell counts); format: cell-based, human; settings: 0.01, 0.1 and 1 mM, 72 hrs, 1% FBS, P<0.01, hydrochloride
Procedure: FIG. 5. […] Cells were counted and plated. At 24 hrs after plating, cells were treated with metformin and JD003 at 0.01 mM, 0.1 mM, and 1 mM concentrations using medium with 1% FBS. After 72 hrs, cell proliferation was quantitated based on cell counts. Experiments were done 3-times, with results expressed as percent control (mean±SE).
We hypothesize that metformin analogs can be prepared with enhanced anticancer activity and minimal non-target toxicity. […] Human pancreatic cancer cells PANC-1, were grown in DMEM with 2 mM glutamine, 1 mM sodium pyruvate, 100 units/mL penicillin, 100 μg/mL streptomycin and 10% FBS at 37 C in a humidified atmosphere with 10% CO2. Then, effects of treatment with metformin or analog JD003 on cell proliferation in vitro were tested. […] To find if analogs may have deleterious effects on normal human cells, we compared the cellular activity of metformin with that of analogs JD003 and JD004 using a pair of human breast epithelial cells. These included human mammary epithelial cells (HMEC) and MCF-7 tumor cells (MCF-7). […] In contrast, minimal antiproliferative effects are detected in nonmalignant human epithelial cells.

[9] = system: MCF-7 cells; experiment: Cell proliferation ELISA, BrdU colorimetric kit; format: cell-based, human; settings: 0.1 mM and 1 mM, BrdU incorporation, 1% FBS, P<0.01; hydrochloride
Procedure: FIGS. 6A-6C. […] Proliferation was assessed using cell proliferation ELISA, BrdU colorimetric kit (Roche). Cells were counted using a hemocytometer and plated. After 24 hrs, cells were treated with metformin and analogs JD003 and JD004 at 0.1 mM and 1 mM doses using phenol-red free medium with 1% FBS. After 48 hr, BrDU labeling solution was added and incubated for 24 h. Proliferation was assessed using BrDU incorporation by ELISA during DNA synthesis in proliferating cells. Data shown as % control (mean±SE) (n=3 experiments).
We hypothesize that metformin analogs can be prepared with enhanced anticancer activity and minimal non-target toxicity. […] Human pancreatic cancer cells PANC-1, were grown in DMEM with 2 mM glutamine, 1 mM sodium pyruvate, 100 units/mL penicillin, 100 μg/mL streptomycin and 10% FBS at 37 C in a humidified atmosphere with 10% CO2. Then, effects of treatment with metformin or analog JD003 on cell proliferation in vitro were tested. […] In contrast, minimal antiproliferative effects are detected in nonmalignant human epithelial cells. […]
Cell proliferation screening assays were done using cell proliferation ELISA, BrdU colorimetric kit (Roche). Cells were counted using a hemocytometer and plated in 96-well plates. […] Cell proliferation were quantitated based on measures of BrDU incorporation (by ELISA) during DNA synthesis in proliferating cells. […] Results were expressed as mean±SE. […]

[10] = system: HCC1806; experiment: MTS cell number assay (CellTiter 96), TNBC cells; format: cell-based; settings: 1 mM, 72 hours, MTS method
Procedure: as §1, §2

[11] = system: HCC38; experiment: MTS cell number assay (CellTiter 96), TNBC cells; format: cell-based; settings: 1 mM, 72 hours, MTS method
Procedure: as §1, §2

[12] = system: triple-negative breast cancer cell lines; settings: literature refs (2,3); cited from earlier work
[13] = system: MIAPaCa-2 and PANC-1 cells xenografted in nude mice; settings: reported; cited from earlier work

SMILES | Biodata TNBC HCC1937, cell numbers as percentage of vehicle treated controls [1] | viability at 1000 µM [2] [%] | viability at 1000 µM [3] [%] | viability at 1000 µM [4] [%] | viability at 1000 µM [5] [%] | viability at 1000 µM [6] [%] | Biodata extra MDA-MB-435, cell numbers as percentage of vehicle treated controls [7] | Inhibition of pancreatic cancer cell proliferation compared with metformin [8] | Blocking proliferation of MCF-7 cells compared with metformin [9] | Biodata TNBC HCC1806, cell numbers as percentage of vehicle treated controls [10] | Biodata TNBC HCC38, cell numbers as percentage of vehicle treated controls [11] | Antitumor activity against triple-negative breast cancer cell lines [12] | Growth of xenografted pancreatic cancer cells [13]
N=C(NC(=N)N1CCOCC1)N1CCOCC1 [JD003, N-(Imino(morpholino)methyl)morpholine-4-carboximidamide hydrochloride] | 37.8 percentage of vehicle treated controls | 93.2 | 61.3 | 107 | 86.7 | 98 | 50.4 percentage of vehicle treated controls | significantly greater inhibition of pancreatic cancer cell proliferation in vitro than parent compound metformin; also recorded: shows promise as a congener with more potent antitumor activity | more effective in blocking proliferation of MCF-7 cells; also recorded: enhanced antiproliferative activity in breast cancer cells as compared to metformin |  |  |  | 
CN(C)C(=N)NC(=N)N [Metformin (000), 1,1-dimethyl-biguanide hydrochloride, reference compound] | 92.9 percentage of vehicle treated controls | 110 | 105 | 99.8 | 83.9 | 72.2 | 77.7 percentage of vehicle treated controls |  |  | 90.2 percentage of vehicle treated controls | 92.5 percentage of vehicle treated controls | only at high millimolar concentrations | significantly decrease growth
